Where a name gives a salt, the structure may show the parent alone. Read-outs that look alike come from different tables or passages of the source.
Test system: murine neural precursor cells (neurosphere cultures)
Experiment: HTS of LOPAC library against secondary neurosphere cultures, MTT proliferation assay at 3 μM, day 7 (z score, P value)
Assay type: cell-based, mouse
[1] = LOPAC primary screen, neurosphere MTT proliferation, 3 μM, day 7
[2] = yes/no: significantly inhibited neurosphere proliferation in primary screen
[3] = LOPAC library screen, 3 μM, MTT, secondary neurosphere cultures, day 7
[4] = yes/no: significantly inhibited neurosphere proliferation (P<0.01) in the primary screen
[5] = LOPAC library screen at 3 μM, secondary neurosphere cultures, MTT
[6] = primary LOPAC screen, 3 μM, MTT, neurosphere proliferation
[7] = yes/no: significantly inhibited neurosphere proliferation in the primary screen
[8] = LOPAC library screen at 3 μM, MTT, secondary neurosphere cultures, screened in singlets
[9] = LOPAC screen, neurosphere MTT proliferation, 3 μM, day 7
[10] = yes/no: significantly inhibited neurosphere proliferation (P<0.01) in primary screen
[11] = LOPAC library screen, 3 μM, MTT, neurosphere cultures
[12] = yes = significantly inhibited neurosphere proliferation (P<0.01) in the primary screen

## C[N+](C)(C)CCOC(=O)CCC(=O)OCC[N+](C)(C)C [Succinylcholine chloride]
  Z Score: −1.93
[1]
  Z score: −1.930
[2]
  Activity: no

## R(−)-Denopamine
[3]
  Z Score: −4.486
[1]
  Z score: −4.486
[4]
  Activity: yes

## CCOC(=O)C1=C(C)NC(C)=C(C(=O)OC)C1c1cccc(Cl)c1Cl (stereo not drawn) [Felodipine]
[5]
  Z Score: −0.9658
[1]
  Z score: −0.966

## CC(C)C[C@H]1C(=O)N2CCC[C@H]2[C@]2(O)O[C@](NC(=O)[C@@H]3C=C4c5cccc6[nH]c(Br)c(c56)C[C@H]4N(C)C3)(C(C)C)C(=O)N12.CS(=O)(=O)O [(+)-Bromocriptine methanesulfonate]
  Z Score: 0.02792
[6]
  Z score: 0.028
[7]
  Activity: no

## CN(C)CCOC(C)(c1ccccc1)c1ccccn1 (stereo not drawn) [Doxylamine succinate]
[8]
  Z Score: 1.736
[9]
  Z score: 1.736
[10]
  Activity: no

## Br.C=CCN1CCc2c(cc(O)c(O)c2Br)[C@@H](c2ccccc2)C1 [R(+)-6-Bromo-APB hydrobromide]
  Z Score: 1.532
[9]
  Z score: 1.532
[10]
  Activity: no

## CCCN1CCc2cc(O)cc3c2[C@H]1Cc1ccc(O)c(O)c1-3
[1]
  Z score: −2.744
[4]
  Activity: yes

## CN[C@@H]1C[C@@H](c2ccc(Cl)c(Cl)c2)c2ccccc21 [Indatraline hydrochloride]
  Z Score: −0.7236
[1]
  Z score: −0.724
[10]
  Activity: no

## NC[C@@H]1O[C@H](O[C@H]2[C@@H](O)[C@H](O[C@@H]3[C@@H](O)[C@H](N)C[C@H](N)[C@H]3O[C@H]3O[C@H](CO)[C@@H](O)[C@H](O)[C@H]3N)O[C@@H]2CO)[C@H](N)[C@@H](O)[C@@H]1O [Paromomycin sulfate]
[11]
  Z Score: 0.821

## CNc1ncnc2c1ncn2[C@@H]1O[C@H](CO)[C@@H](O)[C@H]1O [N6-Methyladenosine]
168 h, 3 µM
  Z Score: 0.7424
  Z score: 0.742
[12]
  Activity: no

## CCOC(=O)c1cnc2c(cnn2CC)c1NN=C(C)C [Etazolate hydrochloride]
168 h, 3 µM
  Z Score: −0.2465
  Z score: −0.247
[10]
  Activity: no

## Cl.Cl.Clc1cccc(N2CCNCC2)c1
  Z Score: 0.9516

## Cn1ccc2cc3c(cc21)CCN3C(=O)Nc1cccnc1 [SB 206553 hydrochloride]
  Z Score: −1.365
[6]
  Z score: −1.365
[7]
  Activity: no

## CN(CCOc1ccc(C[C@H](Nc2ccccc2C(=O)c2ccccc2)C(=O)O)cc1)c1ccccn1 [GW1929]
  Z Score: 0.01508
[1]
  Z score: 0.015
[10]
  Activity: no

## CN1CC[C@]2(CCN3CCc4c(oc5ccccc45)[C@@H]3C2)N(C)C1=O.Cl [MK-912]
  Z Score: −0.582
[1]
  Z score: −0.582
[12]
  Activity: no

## NC(CP(=O)(O)O)C(=O)O (stereo not drawn) [(B1)-2-Amino-3-phosphonopropionic acid]
  Z Score: 1.25

## CC(C)C[C@H](NC(=O)[C@@H](O)[C@H](N)Cc1ccccc1)C(=O)O [Bestatin hydrochloride]
[11]
  Z Score: 0.6432
[9]
  Z score: 0.643
[10]
  Activity: no

## COC1(C2=NCCN2)COc2ccccc2O1.Cl (stereo not drawn) [RX 821002 hydrochloride]
  Z Score: 0.249
[1]
  Z score: 0.249
[2]
  Activity: no

## S=C(NC1CCCCC1)N1CCC(c2cnc[nH]2)CC1 [Thioperamide maleate]
[5]
  Z Score: −0.1537
[6]
  Z score: −0.154
[7]
  Activity: no

## COc1ccc2c(c1)c(CC(=O)O)c(C)n2C(=O)c1ccccc1 [1-benzoyl-5-methoxy-2-methylindole-3-acetic acid]
[5]
  Z Score: −0.955
[6]
  Z score: −0.955
[7]
  Activity: no

## C[C@H]1O[C@@H](n2cc(F)c(=O)[nH]c2=O)[C@H](O)[C@@H]1O [5-fluoro-5′-deoxyuridine]
[11]
  Z Score: 0.3787
[1]
  Z score: 0.379
[10]
  Activity: no

## C[N+](C)(C)CCCCCC[N+](C)(C)C.[Cl-].[Cl-] [Hexamethonium dichloride]
  Z Score: −10.63
[1]
  Z score: −10.634
[4]
  Activity: yes

## S=C([S-])OC1CC2CC1C1CCCC21.[K+] [D-609 potassium]
[5]
  Z Score: −0.8964
[6]
  Z score: −0.896
[7]
  Activity: no

## L-Methionine sulfoximine
  Activity: no
  Z Score: 0.08671
  Z score: 0.087

## O=C(O)c1ccccc1Nc1ccccc1 [N-Phenylanthranilic acid]
[3]
  Z Score: −1.61
[1]
  Z score: −1.610
[2]
  Activity: no

## CCS(=O)(=O)Nc1cccc(C(=C2CCCCC2)c2cnc[nH]2)c1 [A-315456]
  Z Score: 0.3628
[1]
  Z score: 0.363
[12]
  Activity: no

## CCCCNc1ccc(C(=O)OCCN(C)C)cc1 [Tetracaine hydrochloride]
[11]
  Z Score: −0.01953
[6]
  Z score: −0.020
[7]
  Activity: no

## Br.Cc1o[nH]c(=O)c1CC(N)C(=O)O (racemic) [(±)-AMPA hydrobromide]
[1]
  Z score: −0.427
[10]
  Activity: no

## C[N+](C)(C)CCO.[Br-] [Choline bromide]
  Activity: no
  Z Score: −0.73
  Z score: −0.730

## Cc1ncc(CNC(=O)N(CCCl)N=O)c(N)n1.Cl [Nimsutine hydrochloride]
[1]
  Z score: −0.652
[12]
  Activity: no

## Cc1c2ccncc2c(C)c2c1[nH]c1ccccc12 [Ellipticine]
[3]
  Z Score: −8.321

## Cc1c2ccncc2c(C)c2c1[nH]c1ccccc12 [Ellipiticine]
[1]
  Z score: −8.321
[12]
  Activity: yes

## C[C@]12CC[C@@H]3c4ccc(O)cc4CC[C@H]3[C@@H]1CC[C@@H]2O [beta-Estradiol]
  Z Score: −0.5623
[1]
  Z score: −0.562
[10]
  Activity: no

## Br.Br.N=C(N)NCCSSCCNC(=N)N [Guanidinoethyl disulfide dihydrobromide]
168 h, 3 µM
  Z Score: −4.521
  Z score: −4.521
[12]
  Activity: yes

## Cl.O=C(O)C1=CCCN(CCON=C(c2ccccc2)c2ccccc2)C1 [NO-711 hydrochloride]
  Z Score: −0.4618
[1]
  Z score: −0.462
[12]
  Activity: no

## CCCNC(C)C(=O)Nc1ccccc1C (stereo not drawn) [Prilocaine hydrochloride]
[8]
  Z Score: 1.509
[1]
  Z score: 1.509
[2]
  Activity: no

## CN(C)S(=O)(=O)c1ccc2c(c1)/C(=C/c1cc3c([nH]1)CCCC3)C(=O)N2 [SU 6656]
  Z Score: 0.3165
[1]
  Z score: 0.316
[2]
  Activity: no

## NC(=Nc1ccccc1)NC(=O)c1nc(Cl)c(N)nc1N [Phenamil methanesulfonate]
[11]
  Z Score: 1.485
[1]
  Z score: 1.485
[4]
  Activity: no

## C(=C\c1ccccc1)/CN1CCN(C(c2ccccc2)c2ccccc2)CC1 [Cinnarizine]
[3]
  Z Score: −1.375
[9]
  Z score: −1.375

## NSC 95397
  Z Score: −1.098
[1]
  Z score: −1.098
[4]
  Activity: no

## NCCCCCCCCCCN [1,10-Diaminodecane]
168 h, 3 µM
  Z Score: 0.1393
  Z score: 0.139
[10]
  Activity: no

## CC(C)Cc1ccc(C(C)C(=O)O)cc1 (racemic) [(±)-Ibuprofen]
[1]
  Z score: −0.262
[10]
  Activity: no

## CN1CCN2c3ccccc3Cc3ccccc3C2C1 (stereo not drawn) [Mianserin hydrochloride]
  Activity: no
[11]
  Z Score: 0.9746
[1]
  Z score: 0.975

## O=C1CC2(CCCC2)CC(=O)N1CCCCN1CCN(c2ncccn2)CC1 [Buspirone hydrochloride]
  Activity: no
168 h, 3 µM
  Z Score: −1.775
  Z score: −1.775

## CC1CCN=C(N)S1.Cl (racemic) [(±)-AMT hydrochloride]
[1]
  Z score: −2.366
[12]
  Activity: yes

## O=C(O)c1cccnc1C(=O)O [Quinolinic acid]
168 h, 3 µM
  Z Score: −2.419
  Z score: −2.419
[12]
  Activity: yes

## CC(C)(C)NCC(O)c1ccc(O)c(CO)c1 (stereo not drawn) [Salbutamol]
[3]
  Z Score: −1.678
[1]
  Z score: −1.678
[2]
  Activity: no

## Cn1cc(C2=C(c3ccc(Cl)cc3Cl)C(=O)NC2=O)c2ccccc21 [SB 216763]
  Z Score: −2.542
[1]
  Z score: −2.542
[12]
  Activity: yes

## CN1[C@@H]2CC[C@H]1C[C@@H](OC(=O)C(CO)c1ccccc1)C2 (stereo partly drawn) [Atropine sulfate]
  Activity: no
  Z Score: 1.244
  Z score: 1.244

## CN(C)C(=O)C(CCN1CCC(O)(c2ccc(Cl)cc2)CC1)(c1ccccc1)c1ccccc1 [Loperamide hydrochloride]
  Z Score: −0.4976
[1]
  Z score: −0.498
[10]
  Activity: no

## N#CC(C#N)=Cc1ccc(O)c(O)c1 [Tyrphostin 23]
  Z Score: −0.8396
[1]
  Z score: −0.840
[2]
  Activity: no

## NNC(N)=O [Semicarbazide hydrochloride]
  Z Score: −1.405
[1]
  Z score: −1.405
[2]
  Activity: no

## CCCCCCCCCCCCCCCC(=O)NCCO [Palmitoylethanolamide]
  Activity: no
[5]
  Z Score: −0.9134
[1]
  Z score: −0.913

## CC(C)(CO)Cc1cc(C(C)(C)C)c(O)c(C(C)(C)C)c1 [CGP-7930]
  Z Score: −0.411
[6]
  Z score: −0.411
[7]
  Activity: no

## C[C@H](Cc1ccc2c(c1)OC(C(=O)[O-])(C(=O)[O-])O2)NC[C@H](O)c1cccc(Cl)c1.[Na+].[Na+] [CL 316, 243]
  Z Score: 0.6212

## O=C(CCc1ccc(O)cc1)c1c(O)cc(O)cc1O [Phloretin]
168 h, 3 µM
  Z Score: 0.9165
  Z score: 0.916

## Br.C=CCN1CCc2c(cc(O)c(O)c2Cl)C(c2ccccc2)C1 (stereo not drawn) [(B1)-Chloro-APB hydrobromide]
  Z Score: −0.111

Source: patent US8058243B2, “Method for treating a brain cancer with ifenprodil” (HSC Research and Development Limited Partnership, priority 2006, dated 2011)
